Results taken from patent US20240092778A1, “TOPICAL PHARMACEUTICAL COMPOSITIONS AND METHODS” (PYRAMID BIOSCIENCES, INC., priority 2020, published 2024).
Like-named read-outs stand apart in the source and are kept apart here.

Tests used:
human skin = assay: Cumulative irritant patch test (RIPT, 21 days) in healthy participants; details: occlusive patch, healthy subjects
Source text: The objective of this study was to assess the primary irritancy potential of Compound A mesylate Topical Cream in human skin using a Repeat Insult Patch Testing (RIPT) over twenty-one (21) days.
This RIPT was an open-label, single-arm (cell), randomized, evaluator-blinded study wherein test products were applied under an occlusive dressing to the upper back or upper arm continuously and repeatedly to the same site for a period of 21 days. Three concentrations of The Cream described in Example 13 (0.1%, 0.03%, 0.01%) and Vehicle (Placebo Cream—0%) were applied to the skin of healthy subjects aged 18-70 with a Fitzpatrick Skin Type of I-III. In addition, one site was treated with 0.4 ml of 0.25% sodium lauryl sulfate (SLS) as a positive control and another site was treated with a plain Webril patch (cotton cloth) which served as a negative control. The total daily dose of Compound A received by each subject was 560 μg (0.4 ml of each of the three concentrations/3 different sites) or approximately 8 μg/kg. The evaluator graded the level of irritation for each test site at every study visit and was blinded as to the identity of the test products. The targeted sample size was at least 25 subjects (n=25) at completion.
Approximately 0.4 ml of each test material was spread uniformly onto a 15 mm diameter circular disc of non-absorbing cotton cloth (Webril) using micropipettes or plastic tuberculin syringes. The treated circular disc was applied to the designated skin site (see Randomization Section below) measuring 15 mm in diameter on the upper arm or upper back. In addition to the test products, one site was treated with 0.4 ml of 0.25% sodium lauryl sulfate (SLS) as a positive control and another site was treated with a plain Webril patch (cotton cloth) as a negative control. Each site was covered with an occlusive tape (Blenderm, 3M) and the entire patch fastened to the skin with Scanpor or Hypafix Tape to ensure intimate contact with the skin. The initial patch was applied on Day 0 and grading began on Day 1.
Subjects returned to the testing facility once daily (Monday to Friday). […] Subjects were questioned and assessed for adverse events as well as any changes in their health or concomitant medications at every study visit. […]
All patches were inspected at each study visit and adhesion issues were noted when present. Patch sites were inspected and irritant reactions provoked during the study were recorded daily (Monday-Friday). […]
The CII was calculated for each product as well as the positive and negative control sites. The CII is the ratio calculated by dividing the sum of the cumulative irritation scores (SCS) from all subjects by the number of subjects in the completed panel×the maximum tolerated score per patch site (3)×the number of grading assessments (15).

[1] = Solubility of Compound A mesylate salt Form B in excipients and buffers; type: physicochemical
Description: The solubility was determined visually. The approximate amount of drug dissolved was calculated as mg/g of compound soluble in each solvent tested.
The steps involved in performing the solubility study were as follows: • a) Label scintillation vials appropriately for each excipient that were tested. • b) Stir bar was placed in each vial and weighed the empty vial containing stir bar and cap with inert liner. Recorded the TARE weight. • c) Approximately 5.0 g of each excipient was weighed into the designated vial and approximately 5 mg of the API (Compound A mesylate salt) was added to into each vial. • d) All the closed vials were placed on a multi-position stir plate and allowed to mix for at least 15 minutes at ambient conditions. • e) Visually inspected to see if the API has completely dissolved. • f) If the API has dissolved, the last 3 steps were repeated. Additional API aliquots added to the mixture were recorded till saturation solubility reached. […] Stirring the solutions was continued overnight at ambient temperature to confirm solubility is maintained. • g) If API has not completely dissolved, continue stirring samples overnight at ambient conditions. • h) The final weight of the vial, cap, stir bar, and sample were recorded. • i) Further, the final observations were recorded as needed to document the observations.

[2] = Drug excipient compatibility study (physical appearance, % label claim, total impurities); type: physicochemical
Description: The goal of the drug excipient compatibility study was to identify excipients that are incompatible with the Compound A mesylate salt (Form B), resulting in high impurity growth compared to the baseline (To). The compatibility of the compound in selected excipients was assessed by mixing the compound with individual excipients and placing the mixtures on stability studies for 2 or 4 weeks at 25° C./60% RH and 40° C./75% RH. If the compound was insoluble in any excipient, the sample was prepared by first dissolving Compound A mesylate salt in a solvent (purified water) and then mixing with the excipient in a 1:1 ratio. A stock solution of the Compound A mesylate salt in water (0.45% w/w) was used. The total level of impurities over 4 weeks at the two stability conditions were measured.
Physical appearance of Drug-Excipient mixture was evaluated visually, and the observations were recorded which are summarized in Table 2.
In summary, the compound was stable when mixed with the following chemicals: isopropyl myristate, ethanol, medium chain triglycerides, light mineral oil, cyclomethicone, white petrolatum, span 80, glycerin, sorbitol solution 70%, HPMC, HPC, and stearyl alcohol.

[3] = system: Primary human keratinocytes; assay: Human primary keratinocytes proliferation assay (BrdU incorporation); type: cell-based; details: for IC50: Homo sapiens, Keratinocyte, read-out: calculated potency (IC50) to block cell proliferation
Description: Primary human keratinocytes (KMF112410A) were grown in 96-well plates and exposed to different concentration of Compound A mesylate salt, 0.1 nM to 100 μM, for 24 hours or 72 hours.
After 4 hours, the medium was removed and 100 μL of the Fixing/Denaturing solution (paraformaldehyde) was added to each well and allowed to incubate at room temperature for 30 minutes. After 30 minutes, the fixing solution was removed and 100 μl of the prepared 1× detection antibody (Cell Signaling Assay Kit, Catalogue No. 6813) was added to each well and allowed to incubate at room temperature for 1 hour. The plate was then washed 3 times with prepared wash buffer (details of wash buffer; PBS saline).
After washing, 100 μL of the prepared 1× Horseradish Peroxidase (HRP)-conjugated secondary antibody solution was added to each well and allowed to incubate at room temperature for 30 minutes. The plate was then washed 3 times with prepared wash buffer.
After washing the 100 μL 3,3′,5,5′-Tetramethylbenzidine (TMB) substrate was added to each well and incubated 30 minutes at room temperature. After 30 minutes, 100 μL of stop solution ([…]) was added to each well and the absorbance was read at 450 nm using a microplate Reader SpectraMax iD3 (Molecular Devices). The magnitude of the absorbance for the developed color is proportional to the quantity of BrdU incorporated into cells, which is a direct indication of cell proliferation, and negative control (50% supplemented keratinocyte growth medium alone) was used as reference to evaluate cell proliferation inhibition (levels <100%) or activation (levels >100%).

[4] = 28-day repeat dose dermal toxicity study; type: in vivo, minipig; details: Gottingen, minipig, in vivo, topical or ocular; for Cmax / AUC(0-t): 1 mg/kg/day dermal, Day 28; for AUC(0-t): read-out: AUC0-Tlast
Source text: (§1) Toxicity evaluation of Compound A mesylate salt has comprised range-finding and pivotal repeat dose dermal and oral toxicology studies in minipigs, rats and dogs. The dermal route of administration was chosen because it is the intended to be the human therapeutic route. As per International Council for Harmonisation (ICH) guidelines, the oral route was selected in rats and dogs to assess systemic toxicity and to support dermal administration. The minipig was selected as the species for formal dermal toxicology testing of Compound A mesylate salt.
(§2) To support dermal administration of Compound A mesylate, in addition to oral repeat-dose toxicity studies in rats and dogs, dermal toxicity studies in minipigs were conducted. A 28-day repeat dose toxicity study was conducted by dermal application of Compound A mesylate salt at doses in the range of 0.1 mg/kg to 1 mg/kg.
(§3) The 28-day dose toxicity study was initiated at doses in the range of 0.1 to 1.0 mg/kg.

Gottingen Minipigs = assay: 28-day repeat dose dermal toxicity study; type: in vivo, minipig
Source text: as §1, §2, §3

minipigs = assay: Non-GLP 7-day intravenous study; type: in vivo, minipig; details: daily for 7 days
Description: To understand the relationship between potential Compound A mesylate exposure and toxicity (clinical observations), a non-GLP intravenous study was conducted. In this study, minipigs were administered up to 10 mg/kg daily for 7 days by intravenous administration to determine Compound A mesylate exposure and clinical observations. Overall, minipigs tolerated intravenous dose of up to 10 mg/kg/day for 7 seven days without any adverse clinical signs.

[5] = Dog oral toxicity studies (one-month); type: in vivo; details: in vivo, one-month study
Source text: as §1
(§4) The NOAEL for the one-month study was 2 mg/kg/day.

dogs = assay: Dog oral toxicity studies (one-month); type: in vivo
Source text: as §1, §4

[6] = One-month rat oral toxicity study; type: in vivo; details: in vivo, oral, for the myocardial findings
Source text: as §1
(§5) The NOAEL for these findings was 0.5 mg/kg/day.

rats = assay: One-month rat oral toxicity study; type: in vivo
Source text: as §1, §5

rabbits = assay: Skin irritation (erythema and edema); type: in vivo, rabbit
guinea pigs = assay: Contact sensitization; type: in vivo, guinea pig
bovine cornea = assay: Bovine corneal opacity and permeability (BCOP) assay
TRKA = molecular target: T1, TRKA (Homo sapiens, UniProt P04629); assay: TRKA inhibition in cells (IC50); type: cell-based; details: read-out: half maximal inhibitory concentration (IC50) for TRKA
T1 construct: host or cells: cells, not specified
T1 sequence (P04629 33-796): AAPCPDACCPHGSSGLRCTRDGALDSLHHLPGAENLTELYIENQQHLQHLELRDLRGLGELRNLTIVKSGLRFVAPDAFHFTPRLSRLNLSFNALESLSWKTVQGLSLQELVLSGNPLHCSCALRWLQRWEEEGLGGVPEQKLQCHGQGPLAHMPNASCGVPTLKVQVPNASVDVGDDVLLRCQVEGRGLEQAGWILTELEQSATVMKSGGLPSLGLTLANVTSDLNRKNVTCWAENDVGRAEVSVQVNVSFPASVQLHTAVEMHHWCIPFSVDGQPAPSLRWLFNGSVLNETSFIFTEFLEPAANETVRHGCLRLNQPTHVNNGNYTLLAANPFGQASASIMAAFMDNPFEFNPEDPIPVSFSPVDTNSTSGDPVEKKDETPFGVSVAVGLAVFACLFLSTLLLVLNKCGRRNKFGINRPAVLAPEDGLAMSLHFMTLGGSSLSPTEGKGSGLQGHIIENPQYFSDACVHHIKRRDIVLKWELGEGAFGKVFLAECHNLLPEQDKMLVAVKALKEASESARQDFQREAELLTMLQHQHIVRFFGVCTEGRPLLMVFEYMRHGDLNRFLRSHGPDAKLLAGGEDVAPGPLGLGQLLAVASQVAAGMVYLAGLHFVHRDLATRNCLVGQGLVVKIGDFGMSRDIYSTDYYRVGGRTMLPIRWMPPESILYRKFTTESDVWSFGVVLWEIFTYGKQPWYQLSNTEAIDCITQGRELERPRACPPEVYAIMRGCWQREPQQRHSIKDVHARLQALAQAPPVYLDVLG
Source text: (§6) Compound A is a highly specific pan-TRK inhibitor with a mechanism of action that is competitive with the adenosine triphosphate (ATP) binding site of TRKA.

TRKB = molecular target: T2, TRKB (Homo sapiens, UniProt Q16620); assay: TRKB activity in cell-based system overexpressing wild-type full-length receptor; details: cell-based systems overexpressing wild-type, human TRK receptors
T2 construct: in cell-based systems overexpressing wild-type, full-length, human TRK receptors; expressed in transfected cells
T2 sequence (Q16620 32-822): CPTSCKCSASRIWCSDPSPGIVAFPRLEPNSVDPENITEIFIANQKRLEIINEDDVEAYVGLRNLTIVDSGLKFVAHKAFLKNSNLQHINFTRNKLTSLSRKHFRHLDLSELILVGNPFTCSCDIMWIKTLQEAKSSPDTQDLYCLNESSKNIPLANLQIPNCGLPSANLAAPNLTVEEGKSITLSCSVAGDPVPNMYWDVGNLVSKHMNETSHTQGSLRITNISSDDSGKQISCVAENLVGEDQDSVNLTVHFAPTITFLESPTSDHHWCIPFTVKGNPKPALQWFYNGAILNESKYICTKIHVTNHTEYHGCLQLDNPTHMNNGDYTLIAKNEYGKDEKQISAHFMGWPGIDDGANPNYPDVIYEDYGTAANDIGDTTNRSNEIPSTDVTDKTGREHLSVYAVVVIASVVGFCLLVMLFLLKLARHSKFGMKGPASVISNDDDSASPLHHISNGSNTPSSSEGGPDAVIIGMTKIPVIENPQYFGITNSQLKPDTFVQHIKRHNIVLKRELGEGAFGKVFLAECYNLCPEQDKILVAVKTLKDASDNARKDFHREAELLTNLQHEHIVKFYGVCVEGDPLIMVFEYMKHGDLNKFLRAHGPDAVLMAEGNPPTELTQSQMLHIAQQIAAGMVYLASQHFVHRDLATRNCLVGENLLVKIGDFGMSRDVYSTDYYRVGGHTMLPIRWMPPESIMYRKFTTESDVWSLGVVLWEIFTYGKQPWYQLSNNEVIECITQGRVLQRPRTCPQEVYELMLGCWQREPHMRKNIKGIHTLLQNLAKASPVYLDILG
Source text: as §6

TRKC = molecular target: T3, TRKC (Homo sapiens, UniProt Q16288); assay: TRKC activity in cell-based system overexpressing wild-type full-length receptor; details: cell-based systems overexpressing wild-type, human TRK receptors
T3 construct: in cell-based systems overexpressing wild-type, full-length, human TRK receptors; expressed in transfected cells
T3 sequence (Q16288 32-839): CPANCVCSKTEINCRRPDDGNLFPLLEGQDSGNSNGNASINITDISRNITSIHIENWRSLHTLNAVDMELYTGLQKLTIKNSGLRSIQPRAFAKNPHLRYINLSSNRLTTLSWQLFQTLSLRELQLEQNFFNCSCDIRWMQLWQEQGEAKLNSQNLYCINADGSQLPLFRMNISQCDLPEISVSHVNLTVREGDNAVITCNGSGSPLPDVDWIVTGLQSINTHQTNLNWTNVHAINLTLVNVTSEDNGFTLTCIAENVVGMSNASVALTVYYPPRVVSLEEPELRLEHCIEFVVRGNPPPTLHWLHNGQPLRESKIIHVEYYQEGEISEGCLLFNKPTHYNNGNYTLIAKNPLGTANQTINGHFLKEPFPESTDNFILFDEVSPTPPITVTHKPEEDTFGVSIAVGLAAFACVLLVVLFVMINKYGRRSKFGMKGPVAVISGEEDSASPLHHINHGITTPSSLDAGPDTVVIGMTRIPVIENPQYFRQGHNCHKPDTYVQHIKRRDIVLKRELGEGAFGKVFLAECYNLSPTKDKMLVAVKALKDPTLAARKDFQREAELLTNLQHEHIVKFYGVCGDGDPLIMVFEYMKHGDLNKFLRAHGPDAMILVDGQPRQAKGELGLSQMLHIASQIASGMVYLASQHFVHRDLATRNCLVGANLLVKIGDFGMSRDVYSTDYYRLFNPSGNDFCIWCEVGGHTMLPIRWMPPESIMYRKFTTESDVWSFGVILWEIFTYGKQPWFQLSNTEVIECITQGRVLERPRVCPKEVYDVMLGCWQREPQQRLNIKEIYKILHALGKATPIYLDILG
Source text: as §6

[7] = system: adults with recurrent glioblastoma multiforme (GBM); details: up to 60 mg daily; cited from earlier work
[8] = system: Primary human keratinocytes; details: at their respective concentration (Dox 1 μM) after 24 and 72 hours of exposure
Description: Cell death/apoptosis was determined by Propidium Iodide (PI) and Annexin V staining.
For the cell death/apoptosis, human primary neonatal keratinocytes were cultured (5,000 cells/well) in clear bottom 96-well plates overnight. The next morning, growth medium was removed and replaced with 50% supplemented keratinocyte growth medium containing compounds and controls.
After 24 or 72 hours treatment, 200 μL of the prepared 1:100 Annexin V (Biovision, catalog number K101) and PI in 1× binding buffer solution was added to each of the wells and allowed to incubate at room temperature for 5 minutes. Cells were then washed with DPBS (Dulbecco's Phosphate-Buffered Saline) and fixed for 30 minutes in 2% Paraformaldehyde (PFA). Following fixation, cells were washed 3× with 200 μL of DPBS. A final volume of 100 μL of DPBS were added to the wells. Quantification of Annexin V and PI were assessed using the Array Scan High Content Imaging System (ThermoFisher).
The signal quantified for Annexin V, an early apoptosis event marker (FIG. 5) and PI to assess cell death (apoptosis and necrosis) was compared to negative control (50% supplemented media) to determine the percentage of viability (FIG. 6).

[9] = T = 0 (Table 3a, 25° C./60% RH)
[10] = T = 0 (Table 3b, 40° C./75% RH)

With `CCCCCCCCCCCCOS(=O)(=O)[O-].[Na+]` [0.25% Sodium Lauryl Sulfate, sodium lauryl sulfate] the “Cumulative Irritation Index (CII)” value (human skin) was 0.24, the “Mean Cumulative Irritation Score” value (human skin) was 10.89 and the “Mean Daily Score” value (human skin) was 0.73. The “Sum of Cumulative Scores” value (human skin) was 294.

In the case of `CC(C)Oc1cc(-n2cnc3ccc(N[C@@H](C)c4ncc(F)cn4)nc32)n[nH]1.CS(=O)(=O)O` [Compound A mesylate salt, N-[(1S)-1-(5-fluoropyrimidin-2-yl)ethyl]-3-(5-isopropoxy-1H-pyrazol-3-yl)-3H-imidazo[4,5-b]pyridin-5-amine mesylate], the “Solubility” value ([1]; in Ethanol, 24 hours at room temperature, visual) is reported as ≥6.61 mg/g, the water solubility ([1]; in water) is reported as ~9.5 % w/w and the Observation ([1]; solubility study in Citrate buffer (pH 5.6)) is reported as “Aggregated”. The Observation ([1]; solubility study in Ethanol) was “Solubilized”, the Observation ([1]; solubility study in Phosphate buffer (pH 7.4)) was “Aggregated” and the “% Label Claim” value [2, 9] was 99.9%. For the same compound, the “Total Impurities (%)” value [2, 9] was 0.00%, the “% Label Claim” value [2, 10] was 99.9% and the “Total Impurities (%)” value [2, 10] was 0.00%. For the same compound, the “% Label Claim” value ([2]; T = 2 weeks, 25° C./60% RH) was 99.2%, the “Total Impurities (%)” value ([2]; T = 2 weeks, 25° C./60% RH) was 0.00% and the “% Label Claim” value ([2]; T = 2 weeks, 40° C./75% RH) was 99.7%. The “Oxidation Adjusted” value ([2]; T = 2 weeks, 40° C./75% RH) was 0.00, the “Total Impurities (%)” value ([2]; T = 2 weeks, 40° C./75% RH) was 0.00% and the “% Label Claim” value ([2]; T = 4 weeks, 25° C./60% RH) was 100.5%. For the same compound, the “Total Impurities (%)” value ([2]; T = 4 weeks, 25° C./60% RH) was 0.00%, the “% Label Claim” value ([2]; T = 4 weeks, 40° C./75% RH) was 99.1% and the “Oxidation Adjusted” value ([2]; T = 4 weeks, 40° C./75% RH) was 0.00. The “Total Impurities (%)” value ([2]; T = 4 weeks, 40° C./75% RH) was 0.00%, the IC50 ([3]; 24 hours) was 1250 nM and the IC50 ([3]; 72 hours) was 97 nM. The “dose showing significant inhibition of proliferation” value ([3]; after 24 hours of treatment) was ≥ 100 nM, the “dose showing significant inhibition of proliferation” value ([3]; after 72 h treatment) was ≥ 10 nM and the NOAEL at 28 days ([4]; both sexes, dermal, 28 days) was 1 mg/kg/day. For the same compound, the Cmax ([4]; female, females) was 2.52 ng/mL, the AUC(0-t) ([4]; female, females) was 37.2 ng·h/mL and the Cmax ([4]; male, males) was 3.03 ng/mL. The AUC(0-t) ([4]; male, males) was 32.6 ng·h/mL, the “tolerability of dermal application” value (Gottingen Minipigs; 0.1, 0.3, and 1 mg/kg/day for 28 consecutive days) was “well tolerated” and the “systemic exposure after dermal administration compared to intravenous administration” value (Gottingen Minipigs; minipigs) was “significantly lower”. For the same compound, the “tolerated intravenous dose without any adverse clinical signs” value (minipigs) was “up to 10 mg/kg/day”, the NOAEL at 1 month [5] was 2 mg/kg/day and the “effects on body weight, food consumption, clinical pathology, or histopathology” value (dogs) was “no compound-related effects”. The tolerability (dogs; episodes of emesis and soft/fluid feces) was “generally well tolerated”, the NOAEL at 1 month [6] was 0.5 mg/kg/day and the histopathological findings (rats) was “myocardial inflammation, fibrosis and increased plasma phosphate and Troponin I in a minority of animals”. The “food consumption and body weight gain” value (rats; all dose levels) was “marked increase”, the “irritation (erythema and edema)” value (rabbits) was “non-irritant” and the contact sensitization (guinea pigs) was “not considered to be contact sensitizers”. The ocular irritation (bovine cornea) was “did not induce ocular irritation”.

With `CC(C)Oc1cc(-n2cnc3ccc(N[C@@H](C)c4ncc(F)cn4)nc32)n[nH]1` [Compound A, N-[(1S)-1-(5-fluoropyrimidin-2-yl)ethyl]-3-(5-isopropoxy-1H-pyrazol-3-yl)-3H-imidazo[4,5-b]pyridin-5-amine] the IC50 (TRKA) was 0.2 nM, the “in-vitro activity against TRKB, concentration” value (TRKB) was “below 5 nM” and the “in-vitro activity against TRKC, concentration” value (TRKC) was “below 5 nM”. For the same compound, the “early efficacy signals in GBM patients” value [7] was “No early efficacy signals”.

In the case of `COC(=O)[C@@]1(O)C[C@H]2O[C@]1(C)n1c3ccccc3c3c4c(c5c6ccccc6n2c5c31)C(=O)NC4` [Compound K252a], the “cell death (Annexin V / PI) versus negative control” value [8] is reported as “significant cell death”.
